Measured values reported in patent US6610309B2, “Therapeutic composition comprising an antigen or an in vivo generator of a compound comprising an amino acid sequence” (Societe d'Exploitation de Produits pour les Industries …, priority 1995, dated 2003).
Like-named read-outs stand apart in the source and are kept apart here.

Tests used:
anti-BSA antibodies = assay type: in vivo, OF1 mice; conditions: last dilution above background noise; for anti-BSA antibody/ primary response (D28) / anti-BSA antibody/ primary response (D14): 50 μg BSA in 100 μl s.c. on D0
Protocol: (§1) The examples were performed on OF1 mice whose average weight was between 18 and 20 g.
The results expressed are an average of the results obtained on 10 mice.
(§2) The therapeutic compositions comprised Sigma Grade V bovine serum albumin (BSA) as antigen.
(§3) The therapeutic compositions were injected subcutaneously.
The humoral immune response was determined by assay of the total IgG and of the total IgG1, according to the ELISA method.
The antibody levels mentioned in the examples correspond to the last dilution above the background noise.
Therapeutic compositions (or doses) of 100 μl each, comprising 50 μg of BSA, are prepared.
These therapeutic compositions were injected into the mice on D0 (i.e. the day of injection).
The level of anti-BSA antibodies was determined 14 and 28 days after the injection (primary response).
On D28, the same therapeutic composition was injected into the same mice.
The level of anti-BSA antibodies was determined on D42 and D56.

total IgG and total IgG1 = assay: Humoral response, comparison of calcium salts (Example 4); assay type: in vivo, OF1 mice; conditions: 0.5 mg of calcium salt, 50 μg antigen, 100 μl s.c.; injection repeated on D28; antibodies assayed on D42
Protocol: as §3
(§4) The antibodies were assayed 42 days after the vaccination.
(§5) Injection of the therapeutic composition was repeated on D28. The antibodies were assayed on D42.

IgG2a = assay: Cell response, comparison of calcium salts (Example 4); assay type: in vivo, OF1 mice; conditions: 0.5 mg of calcium salt, 50 μg antigen, 100 μl s.c.; injection repeated on D28; antibodies assayed on D42
Protocol: as §3, §4, §5

mice [1] = conditions: in vivo, sc
Protocol: as §1, §2, §3
A therapeutic composition 100 μl in volume, comprising 50 μg of antigen, was injected into various batches of mice each comprising 5 mice. The local reactions (lesions and granulomae) were evaluated on D8 and D35.

mice [2] = conditions: 0.5 mg of calcium salt, 50 μg antigen, 100 μl s.c.; observed during the tests of Example 4
Protocol: as §3
Each therapeutic composition, 100 μl in volume, contained 50 μg of antigen and, except for the control, 0.5 mg of a calcium salt, such that the calcium concentration of each composition was 2.7 mg.
as §5

[3] = adjuvant 1 mg/dose, 50 μg BSA in 100 μl s.c. on D0, repeated on D28
[4] = adjuvant 2 mg/dose, 50 μg BSA s.c. on D0, repeated on D28
[5] = adjuvant 0.5 mg/dose, 50 μg BSA s.c. on D0, repeated on D28
[6] = adjuvant 3 mg/dose, 50 μg BSA s.c. on D0, repeated on D28

O=C([O-])C(O)C(O)C(O)C(O)C(O)CO.O=C([O-])C(O)C(O)C(O)C(O)C(O)CO.[Zn+2] (centres unmarked) [GluhpZn]
anti-BSA antibody/ primary response (D42) (anti-BSA antibodies; [3]): 64,000 | anti-BSA antibody/ primary response (D56) (anti-BSA antibodies; [3]): 64,000 | anti-BSA antibody/ primary response (D28) (anti-BSA antibodies; adjuvant 1 mg/dose): 6000 | anti-BSA antibody/ primary response (D14) (anti-BSA antibodies; adjuvant 1 mg/dose, average of 10 mice): 8000

O=P([O-])([O-])O.[Ca+2] [CaHPO4]
Humoral response (total IgG and total IgG1): 64,000 | Cell response (IgG2a): 10,000

O=P([O-])([O-])OCC(O)CO.[Ca+2] (centres unmarked) [GlyCa]
anti-BSA antibody/ primary response (D14) (anti-BSA antibodies; adjuvant 2 mg/dose): 4000 | anti-BSA antibody/ primary response (D28) (anti-BSA antibodies; adjuvant 2 mg/dose): 2000 | anti-BSA antibody/ primary response (D42) (anti-BSA antibodies; [4]): 64,000 | anti-BSA antibody/ primary response (D56) (anti-BSA antibodies; [4]): 64,000

O=C([O-])[C@H](O)[C@@H](O)[C@H](O)[C@H](O)CO.[K+] [GluK]
local reactions (D8), Mouse No. 1 (mice [1]): − | local reactions (D8), Mouse No. 2 (mice [1]): − | local reactions (D8), Mouse No. 3 (mice [1]): − | local reactions (D8), Mouse No. 4 (mice [1]): − | local reactions (D8), Mouse No. 5 (mice [1]): − | local reactions (D35), Mouse No. 1 (mice [1]): − | local reactions (D35), Mouse No. 2 (mice [1]): − | local reactions (D35), Mouse No. 3 (mice [1]): − | local reactions (D35), Mouse No. 4 (mice [1]): − | local reactions (D35), Mouse No. 5 (mice [1]): −

O=P([O-])([O-])OCC(O)CO.[Mn+2] (centres unmarked) [GlyMn]
local reactions (D8), Mouse No. 2 (mice [1]): + | local reactions (D8), Mouse No. 3 (mice [1]): ++ | local reactions (D8), Mouse No. 4 (mice [1]): + | local reactions (D8), Mouse No. 5 (mice [1]): − | local reactions (D35), Mouse No. 1 (mice [1]): − | local reactions (D35), Mouse No. 2 (mice [1]): + | local reactions (D35), Mouse No. 3 (mice [1]): + | local reactions (D35), Mouse No. 4 (mice [1]): + | local reactions (D35), Mouse No. 5 (mice [1]): +

O=C([O-])[C@H](O)[C@@H](O)[C@H](O)[C@H](O)CO.O=C([O-])[C@H](O)[C@@H](O)[C@H](O)[C@H](O)CO.[Zn+2] [GluZn]
anti-BSA antibody/ primary response (D14) (anti-BSA antibodies; adjuvant 0.5 mg/dose): 16,000 | anti-BSA antibody/ primary response (D28) (anti-BSA antibodies; adjuvant 0.5 mg/dose): 6000 | anti-BSA antibody/ primary response (D42) (anti-BSA antibodies; [5]): 96,000 | anti-BSA antibody/ primary response (D56) (anti-BSA antibodies; [5]): 96,000

O=C([O-])[O-].[Ca+2] [CaCO3]
Humoral response (total IgG and total IgG1): 32,000 | Cell response (IgG2a): 4000

[Cl][Mn][Cl] [MnCl^2+, reference compound]
local reactions (D8), Mouse No. 1 (mice [1]): +++ | local reactions (D35), Mouse No. 1 (mice [1]): +++

O=C([O-])[C@H](O)[C@@H](O)[C@H](O)[C@H](O)CO.O=C([O-])[C@H](O)[C@@H](O)[C@H](O)[C@H](O)CO.[Ca+2] [GluCa]
local reactions (D8), Mouse No. 1 (mice [1]): − | local reactions (D8), Mouse No. 2 (mice [1]): − | local reactions (D8), Mouse No. 3 (mice [1]): − | local reactions (D8), Mouse No. 4 (mice [1]): − | local reactions (D8), Mouse No. 5 (mice [1]): − | local reactions (D35), Mouse No. 1 (mice [1]): − | local reactions (D35), Mouse No. 2 (mice [1]): − | local reactions (D35), Mouse No. 3 (mice [1]): − | local reactions (D35), Mouse No. 4 (mice [1]): − | local reactions (D35), Mouse No. 5 (mice [1]): − | anti-BSA antibody/ primary response (D14) (anti-BSA antibodies; adjuvant 3 mg/dose): 116,000 | anti-BSA antibody/ primary response (D28) (anti-BSA antibodies; adjuvant 3 mg/dose): 8000 | anti-BSA antibody/ primary response (D42) (anti-BSA antibodies; [6]): 128,000 | anti-BSA antibody/ primary response (D56) (anti-BSA antibodies; [6]): 96,000 | Humoral response (total IgG and total IgG1): 128,000 | Cell response (IgG2a): 32,000

[Ca+2].[Cl-].[Cl-] [CaCl2]
Humoral response (total IgG and total IgG1): 64,000 | Cell response (IgG2a): 24,000 | lesions induced (mice [2]): very large lesions
